One series can be described thus: PAMPA, BBB permeability. The note with it: Membrane Retention, BBB. For orientation: The PAMPA barrier holds no transporters, so it reflects passive diffusion.
For series [1], the system named is U87 cells. Description: Proliferation assay on U87 cells. It is filed as cell-based, human. Here is the method: U87 and U251 cells were purchased from European Collection of Cell Cultures (ECACC, Salisbury, UK) and were cultured in DMEM medium supplemented with 10% Foetal Bovine Serum. In order to determine antiproliferative effect of drugs tumor cells were seeded at 2×10^5 cells/ml density and treated with compounds at indicated concentrations. The cultures were maintained at 37° C. in 5% v/v CO2 for 72 h. Cell number and viability were evaluated by Trypan blue exclusion test. Viable cells were expressed as percentage respect to cells treated with vehicle (=100%). Mean and SD values of at least three different experiments are shown.
U87 and U251 cells were purchased from European Collection of Cell Cultures (ECACC, Salisbury, UK) and were cultured in DMEM medium supplemented with 10% Foetal Bovine Serum. In order to determine antiproliferative effect of drugs tumor cells were seeded at 2×10^5 cells/ml density and treated with compounds at indicated concentrations. The cultures were maintained at 37° C. in 5% v/v CO2 for 72 h. Cell number and viability were evaluated by Trypan blue exclusion test. Viable cells were expressed as percentage respect to untreated cells (=100%/). Mean and SD values of at least three different experiments are shown.

Series [2] has as its system U87 cells. Description: Low density growth assay. The note with it: 4Gy plus 1 μM or 10 μM Si306, 15 days. It is filed as cell-based, human. Here is the method:
U87 cells capacity for growth at clonal density, was evaluated by plating cells at density of 10 cells/cm^2 in 10% fetal bovine supplemented DMEM. After 2 weeks of culture, adherent cells were fixed with cold methanol, washed with PBS/BSA and air-dried. Adherent cells were stained with 0.5% crystal violet for 15 minutes at room temperature. The stained colonies were photomicrographed and analyzed by number and size with the public domain software ImageJ (by Wayne Rasband, http://rsb.info.nih.gov/ij/). Mean and SD values of at least three different experiments are shown.

Another series deals with hBMEC endothelial cells. As to the kind of experiment: Sprouting assay. It is filed as cell-based. Particulars: 0.5 μM and 1 μM, 24 h. The procedure:
The brain microvascular endothelial cell line hBMEC was purchased from ScienCell Research Laboratory (Carlsbad, Calif., USA). HBMEC cells were suspended in culture medium containing 20% methylcellulose, seeded at a density of 1000 cells/well, into nonadhesive 96 well plate and cultured at 37° C. (5% CO2, 100% humidity). Under these conditions, suspended endothelial cells (EC) form spontaneously within 4 h a single cell aggregate known as spheroid. Spheroids were harvested within 24 h and used for in gel sprouting angiogenesis experiments. Briefly, spheroids were seeded in micro-slides coated with Matrigel and images were observed after 24 h, captured by an inverted microscope and analysed with the NIH Image J analysis system. For statistical analysis, number of sprouts per spheroid, with a minimum of 10 spheroids for each treatment, was considered.

The term solubility denotes how much of the substance goes into solution per volume.

In brackets after ≈: the same amount, converted by molar mass.

Protocol for PAMPA, BBB permeability: Donor solution (0.5 mM) was prepared by diluting 1 mM dimethylsulfoxide (DMSO) compound stock solution using phosphate buffer (pH 7.4, 0.025 M). […] Donor solution (150 μL) was added to each well of the filter plate. To each well of the acceptor plate were added 300 μL of solution (50% DMSO in phosphate buffer). All compounds were tested in three different plates on different days. The sandwich was incubated for 5 h at room temperature under gentle shaking. After the incubation time, the plates were separated, and samples were taken from both receiver and donor sides and analyzed using LC with UV detection at 280 nm.
Permeability (Papp) for PAMPA was calculated according to the following equation, obtained from Wohnsland and Faller^27 and Sugano et al.^28 equation with some modification in order to obtain permeability values in cm s^−1,
Drug concentration is estimated by using the peak area integration. Membrane retentions (%) were calculated according to the following equation:
where r is the ratio between drug concentration in the acceptor and equilibrium concentration, D, A, and Eq represented drug concentration in the donor, acceptor and equilibrium solution, respectively.
Donor solution of tested compounds (0.5 mM) was prepared by diluting 1 mM dimethylsulfoxide (DMSO) compound stock solution using phosphate buffer (pH 7.4, 25 mM). […] Donor solution (150 μL) was added to each well of the filter plate. To each well of the acceptor plate were added 300 μL of solution (50% DMSO in phosphate buffer). Compounds was tested in three different plates on different days. The sandwich was incubated for 5 h at room temperature under gentle shaking.
Permeability (Papp) for PAMPA was calculated according to the following equation, obtained from Wohnsland and Faller and Sugano et al.^27, 28.
Drug concentration is estimated by using the peak area integration. Membrane retention (%) was calculated according to the following equation:
Protocol for Water solubility assay: Each solid compound (1 mg) was added to 1 mL of water. […] The suspensions were filtered through a 0.45 μm nylon filter (Acrodisc), and the solubilized compound determined by LC-MS-MS assay. For each compound the determination was performed in triplicate. […] The flow rate was 0.2 mL min-^−1 and injection volume was 5 μL. The instrument operated in positive mode and parameters were: detector 1850 V, drying gas pressure 25.0 psi, desolvation temperature 300.0° C., nebulizing gas 40.0 psi, needle 5000 V and shield 600 V. Nitrogen was used as nebulizer gas and drying gas.
Solid compound (1 mg) was added to 1 mL of water. […] The suspensions were filtered through a 0.45-μm nylon filter (Acrodisc), and the solubilised compound determined by LC-UV-MS assay. The determination was performed in triplicate.
Chromatographic analysis was performed with the method above reported and quantification of compounds was made by comparison with apposite calibration curves realized with standard solutions in methanol.

As to `ClC(Cn1ncc2c(Nc3cccc(Br)c3)nc(SCCN3CCOCC3)nc21)c1ccccc1` (stereo not drawn) [Si306, N-(3-Bromophenyl)-1-(2-chloro-2-phenylethyl)-6-[(2-morpholin-4-ylethyl)thio]-1H-pyrazolo[3,4-d]pyrimidin-4-amine], the “PAMPA BBB (MR %)” value in the series “PAMPA, BBB permeability” was “(41.0) %”. In addition, the “H2O Solubility” value in “Water solubility assay” (Table 6) stood at 3.7 µg/mL. In addition, in “Water solubility assay” (Table 8, 20° C., 24 h), the “H2O Sol.” value worked out at 3.70 µg/mL. Moreover, in “Water solubility assay” (water, 20 °C, thermodynamic from solid), the concentration in solution (solubility at 24 h) came to 6.61 µM (≈ 3.79 µg/mL). Moreover, the “reduction of the total cell number vs control” value in the series with U87 cells [1] (U87, 5 μM, 72 h) is recorded as “about 50%”. Further, the dead cells result in the series with U87 cells [1] (U87, 30 μM, 72 h) was “more than 80%”. Besides, the “antiproliferative effect in combination with mitomycin C” value in the series on U87 cells [1] (U87, 72 h, 1 μM Si306 plus increasing mitomycin C) is on record as “synergic antiproliferative effect”. The “number of colonies, combination with radiotherapy” value in the series with U87 cells [2] is “reduced significantly the number of colonies”. Moreover, the “angiogenesis, number of sprouts per spheroid” value in the series with hBMEC endothelial cells is given as “significant reduction of angiogenesis”.

Values taken from patent US20180186796A1, “COMPOUNDS AND USES THEREOF” (LEAD DISCOVERY SIENA S.R.L., priority 2014, published 2018).
